These results are taken from patent publication US20230172877A1, “METABOLITES RELEASED FROM APOPTOTIC CELLS ACT AS NOVEL TISSUE MESSENGERS” (University of Virginia Patent Foundation, priority 2020, published 2023).

Peptide text beside a SMILES is read from it. * marks the point of attachment. Cbz = O=C(OCc1ccccc1)*; CH2F = FC*

One test concerns arthritis. To be noted: FBP alone, reference 26; cited from earlier work.
For test [1], the system named is Jurkat cells, A549 lung epithelial cells, and HCT116 colonic epithelial cells. In words: Apoptosis-dependent release of conserved metabolites (analytical kits) with or without caspase inhibition. In kind it is cell-based, human. To be noted: 50 uM zVAD pre-treatment for 10 min; UV, ABT-737, TRAIL. As to the method: A549 cells were treated with 10 µM ABT-737 or exposed 600mJ cm^-2 and incubated for twenty-four hours. HCT-116 cells were treated with 10 µM ABT-737 or 100 ng ml^-1 TRAIL and incubated for 24 hours. All cells were pre-treated for 10 min with 50 uM zVAD prior to apoptosis induction in indicated experiments. All cells were incubated at 37° C. with 5% CO2 for indicated times.
Metabolite detection. Spermidine detection was measured using a colorimetric kit (Cloud-Clone Corp.) via manufacturers’ protocol. Briefly, supernatants taken from cells under specified conditions were centrifuged at 1000 x g for twenty minutes. All reagents were brought to room temperature prior to use. […] 90 µl of substrate solution was added to each well and incubated for 10 minutes at 37° C. after which 50 µl of stop solution was added, the plate was mixed and immediately measure at 450 nm on a plate reader (Flex station 3). […]
ATP was measure using a luciferase-based kit (Promega) via manufactures’ protocol. […] Luminescence was immediately measure on the Flex Station 3. […]
Glycerol-3-phosphate and creatine were measured based on manufacturers’ protocols (Abcam). […] OD at 450 nm or fluorescence at Ex/Em 535/587 was measured for glycerol-3-phosphate and creatine, respectively.
To test other cell types and additional apoptotic modalities, we analyzed the release of four ‘conserved metabolites’ via analytical kits. […]

The conditions of test [2]: exogenous supplementation, reference 13; cited from earlier work.
Another test addresses T1, Panx1 (Homo sapiens, UniProt Q96RD7).
T1 construct: host or cells: Jurkat E6.1 T cells (wild type), apoptotic
In words: Panx1-dependent metabolite release from apoptotic Jurkat T cells with Panx1 inhibitors. In kind it is cell-based. To be noted: UV-induced apoptosis; spironolactone 50 µM, trovafloxacin 25 µM. The protocol: Apoptosis induction. Wild type Jurkat E6.1 (ATCC) or dominant negative Pannexinl-expressing (Panxl-DN)^10 cells were resuspended in RPMI-1640 containing 1% BSA, 1% PSQ, and 10 mM HEPES and treated with 250 ng ml^-1 anti-Fas (clone CH11), 10 µM ABT-737, or exposed to 150 mJ cm^-2 ultraviolet C irradiation for 1-2 min (Stratalinker). Jurkat cells were incubated for 4 hours after apoptosis induction. For apoptosis induction in the presence of Panx1 inhibitors, Jurkat cells were treated with spironolactone (50 µM) or trovafloxacin (25 µM) in RPMI containing 1% BSA and 1% PSQ.
For untargeted metabolomics analysis through Metabolon, recovery standards were added to samples in order to monitor QC of the analysis. Samples were methanol precipitated under shaking for 2 minutes. […] Samples were analyzed under 4 different conditions; two for analysis by two separate reverse phase (RP)/UPLC-MS/MS methods with positive ion mode ESI, one for analysis by RP/UPLC-MS/MS with negative ion mode ESI, and one for analysis by HILIC/UPLC-MS/MS with negative ion mode ESI. […]
During the above analyses of EXAMPLE 1, it was noted that despite the many cellular metabolites detected in the pellet, only a subset is released; further, even within a known metabolic pathway, only some but not others were released. […]

T1 sequence (Q96RD7 1-379 limits assumed): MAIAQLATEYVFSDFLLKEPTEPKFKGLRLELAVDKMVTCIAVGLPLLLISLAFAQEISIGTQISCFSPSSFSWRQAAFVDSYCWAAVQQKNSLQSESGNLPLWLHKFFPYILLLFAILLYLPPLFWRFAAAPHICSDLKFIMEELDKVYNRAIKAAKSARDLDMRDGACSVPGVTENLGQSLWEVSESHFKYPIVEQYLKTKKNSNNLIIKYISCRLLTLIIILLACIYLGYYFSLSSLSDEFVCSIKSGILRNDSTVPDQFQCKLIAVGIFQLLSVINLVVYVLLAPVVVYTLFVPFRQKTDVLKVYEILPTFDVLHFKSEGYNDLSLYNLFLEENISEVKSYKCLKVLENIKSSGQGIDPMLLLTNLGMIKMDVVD

With `O=C(COP(=O)(O)O)[C@@H](O)[C@H](O)[C@H](O)COP(=O)(O)O` [fructose 1,6-bisphosphate (FBP), fructose 1,6-bisphosphate], the Role in arthritis entry with arthritis is “can have ameliorative roles in arthritis”.
Turning to `COC(=O)C[C@H](NC(=O)[C@H](C)NC(=O)[C@@H](NC(=O)OCc1ccccc1)C(C)C)C(=O)CF` [zVAD, zVAD-FMK] (Cbz-Val-Ala-Asp(OMe)-CH2F), the “Apoptosis-dependent release of the tested metabolites with caspase inhibition” value in test [1] is given as “attenuation”.
Take `NCCCCNCCCN` [spermidine]: in test [2], the “Effect on inflammation and longevity” value was “can reduce inflammation and improve longevity”.
On to `N[C@@H]1[C@H]2CN(c3nc4c(cc3F)c(=O)c(C(=O)O)cn4-c3ccc(F)cc3F)C[C@@H]12` [Trovan, trovafloxacin], for which the “Apoptotic metabolites in Jurkat T cell supernatants when Panx1 was inhibited” value at Panx1 was “reduced”.
Same read-out and setting: with `CC(=O)S[C@@H]1CC2=CC(=O)CC[C@]2(C)[C@H]2CC[C@@]3(C)[C@@H](CC[C@@]34CCC(=O)O4)[C@H]12` [Spiro, spironolactone] the entry was “reduced”.
